According to ChEMBL document CHEMBL5113383, “Application of the All-Hydrocarbon Stapling Technique in the Design of Membrane-Active Peptides” (J Med Chem, 2022):
Converted amounts (≈) assume the structure as drawn. Positions of bridges follow the written chain, without caps; N, C: chain ends. Non-standard residues stand in square brackets, D forms with d. Residues, ends and D or L forms follow the SMILES beside them. *: point of attachment. X2 = C[C@@H]1O[C@H](*)[C@@H](O)[C@H](O)[C@@H]1O; X1 = O[C@H]1[C@H](O)[C@@H](*)OC[C@H]1O; R8 = C=CCCCCCC[C@@](C)(N)C(=O)O; R5 = C=CCCC[C@@](C)(N)C(=O)O; S5 = C=CCCC[C@](C)(N)C(=O)O; Nle = CCCC[C@H](N)C(=O)O; Orn = NCCC[C@H](N)C(=O)O

How the values were obtained:
[1] = Hemolytic activity in human erythrocytes incubated for 1 hr; type: toxicity, cell-based, Erythrocyte; conditions: for hemolysis at 1 h: read-out: Activity
Nakaseomyces glabratus [2] = assay: Antimicrobial activity against Candida glabrata 896; type: functional
Pichia kudriavzevii = assay: Antimicrobial activity against Candida krusei ATCC 2340; type: functional
Candida albicans [3] = assay: Antimicrobial activity against Candida albicans 904; type: functional
Candida albicans [4] = assay: Antimicrobial activity against Candida albicans 901; type: functional
Candida tropicalis [5] = assay: Antimicrobial activity against Candida tropicalis ATCC 20026; type: functional
Candida tropicalis [6] = assay: Antimicrobial activity against Candida tropicalis 895; type: functional
[Candida] auris [7] = Antimicrobial activity against Candida auris 918; type: functional; conditions: Candidozyma auris
[Candida] auris [8] = Antimicrobial activity against Candida auris 919; type: functional; conditions: Candidozyma auris
Candida parapsilosis = assay: Antimicrobial activity against Candida parapsilosis ATCC 22010; type: functional; conditions: Lodderomyces parapsilosis
Nakaseomyces glabratus [9] = assay: Antimicrobial activity against Candida glabrata ATCC 1182; type: functional
Candida albicans [10] = assay: Antimicrobial activity against Candida albicans SC5314; type: functional

Compound | HC50 at 1 h [1] [µM] | also measured
CCCC[C@H](NC(=O)[C@H](Cc1cnc[nH]1)NC(=O)[C@H](C)NC(=O)[C@H](CCCC)NC(=O)[C@@H](NC(=O)[C@H](CCCCN)NC(=O)[C@@H]1CCCN1C(=O)[C@H](CC(C)C)NC(=O)[C@@H](NC(=O)[C@H](CCCCN)NC(=O)[C@H](CCCCN)NC(=O)[C@H](CC(C)C)NC(=O)[C@@H](NC(=O)[C@H](CO)NC(=O)[C@H](CC(C)C)NC(=O)[C@H](Cc1ccccc1)NC(=O)CN)[C@@H](C)CC)C(C)C)C(C)C)C(=O)N[C@@H](CCCCN)C(N)=O (H-GFLSILKKVLPKV[Nle]AH[Nle]K-NH2) | 50 | –
CCCC[C@H](NC(=O)[C@H](Cc1cnc[nH]1)NC(=O)[C@H](C)NC(=O)[C@H](CCCC)NC(=O)[C@@H](NC(=O)[C@H](CCCCN)NC(=O)[C@@H]1CCCN1C(=O)[C@]1(C)CCC/C=C/CCCCCC[C@@](C)(NC(=O)[C@H](Cc2ccccc2)NC(=O)CN)C(=O)N[C@@H](CO)C(=O)N[C@@H]([C@@H](C)CC)C(=O)N[C@@H](CC(C)C)C(=O)N[C@@H](CCCCN)C(=O)N[C@@H](CCCCN)C(=O)N[C@@H](C(C)C)C(=O)N1)C(C)C)C(=O)N[C@@H](CCCCN)C(N)=O (H-GF[R8]SILKKV[S5]PKV[Nle]AH[Nle]K-NH2; staple (E) 3-10) | 20 | –
CCCC[C@@H]1NC(=O)[C@@](C)(NC(=O)[C@H](CCCCN)NC(=O)[C@@H]2CCCN2C(=O)[C@H](CC(C)C)NC(=O)[C@]2(C)CCC/C=C\CCC[C@](C)(NC(=O)[C@H](CO)NC(=O)[C@H](CC(C)C)NC(=O)[C@H](Cc3ccccc3)NC(=O)CN)C(=O)N[C@@H](CC(C)C)C(=O)N[C@@H](CCCN)C(=O)N[C@@H](CCCCN)C(=O)N2)CCC/C=C\CCC[C@@](C)(C(=O)N[C@@H](CCCCN)C(N)=O)NC(=O)[C@H](Cc2cnc[nH]2)NC(=O)[C@H](C)NC1=O (H-GFLS[S5]L[Orn]K[S5]LPK[S5][Nle]AH[S5]K-NH2; staple (Z) 5-9, 13-17) | 13.9 | –
CCCC[C@H](NC(=O)[C@H](Cc1cnc[nH]1)NC(=O)[C@H](C)NC(=O)[C@H](CCCC)NC(=O)[C@@H](NC(=O)[C@H](CCCCN)NC(=O)[C@@H]1CCCN1C(=O)[C@H](CC(C)C)NC(=O)[C@@]1(C)CCC/C=C\CCC[C@](C)(NC(=O)[C@H](CO)NC(=O)[C@H](CC(C)C)NC(=O)[C@H](Cc2ccccc2)NC(=O)CN)C(=O)N[C@@H](CC(C)C)C(=O)N[C@@H](CCCCN)C(=O)N[C@@H](CCCCN)C(=O)N1)C(C)C)C(=O)N[C@@H](CCCCN)C(N)=O (H-GFLS[S5]LKK[R5]LPKV[Nle]AH[Nle]K-NH2; staple (Z) 5-9) | 14.7 | –
CC[C@H](C)[C@@H]1NC(=O)[C@H](CCCCN)NC(=O)[C@H](CCCCN)NC(=O)[C@](C)(NC(=O)[C@H](CC(N)=O)NC(=O)[C@@H](N)C(C)C)CCCCCC/C=C\CCC[C@@](C)(C(=O)N[C@H](C(=O)N[C@@H](CCCCN)C(=O)N[C@H](C(=O)N[C@H](C(=O)N[C@@H](CCCCN)C(N)=O)C(C)C)C(C)C)[C@@H](C)CC)NC(=O)[C@H](CCCCN)NC(=O)CNC(=O)[C@H](CC(C)C)NC1=O (H-VN[R8]KKILGK[S5]IKVVK-NH2; staple (Z) 3-10) | 100 | –
H-GIGKFLHSAKKFGKAFVGEIMNS-NH2 | – | hemolysis at 1 h [1]: < 2%
CC[C@H](C)[C@H](NC(=O)[C@H](CCCCN)NC(=O)[C@H](CCCCN)NC(=O)[C@]1(C)CCC/C=C\CCC[C@](C)(NC(=O)CNC(C)=O)C(=O)N[C@@H](Cc2ccccc2)C(=O)N[C@@H](CC(=O)O)C(=O)N[C@@H]([C@@H](C)CC)C(=O)N1)C(=O)N[C@@H](C)C(=O)N[C@@H](CCC(=O)O)C(=O)N[C@@H](CO)C(=O)N[C@@H](Cc1ccccc1)C(N)=O (Ac-G[S5]FDI[S5]KKIAESF-NH2; staple (Z) 2-6) | – | MIC (Nakaseomyces glabratus [2]): 128 µg/mL (≈ 82.8 µM); MIC (Pichia kudriavzevii): > 128 µg/mL; MIC (Candida albicans [3]): > 128 µg/mL; MIC (Candida albicans [4]): > 128 µg/mL; MIC (Candida tropicalis [5]): > 128 µg/mL; MIC (Candida tropicalis [6]): 16 µg/mL (≈ 10.4 µM); MIC ([Candida] auris [7]): > 128 µg/mL; MIC ([Candida] auris [8]): > 128 µg/mL; MIC (Candida parapsilosis): > 128 µg/mL; MIC (Nakaseomyces glabratus [9]): > 128 µg/mL; MIC (Candida albicans [10]): > 64 µg/mL
CC[C@H](C)[C@H](NC(=O)CN)C(=O)N[C@@H](CCSC)C(=O)N[C@@H](CO[C@H]1OC[C@@H](O)[C@@H](O)[C@@H]1O)C(=O)N[C@@H](CO)C(=O)N[C@@H](CC(C)C)C(=O)N[C@@H](CCSC)C(=O)N[C@@H](CCCCN)C(=O)N[C@@H](CCCCN)C(=O)N[C@@H](CC(C)C)C(=O)N[C@@]1(C)CCC/C=C\CCC[C@@](C)(C(=O)N[C@@H](CCCCN)C(N)=O)NC(=O)[C@H]([C@@H](C)CC)NC(=O)[C@H](Cc2cnc[nH]2)NC(=O)[C@H](C)NC1=O (H-GIMS(X1)SLMKKL[S5]AHI[S5]K-NH2; staple (Z) 11-15) | > 400 | –
H-GIMSSLMKKLAAHIAK-NH2 | > 400 | –
CC[C@H](C)[C@H](NC(=O)CN)C(=O)N[C@@H](CCSC)C(=O)N[C@@H](CO[C@H]1O[C@@H](C)[C@@H](O)[C@@H](O)[C@@H]1O)C(=O)N[C@@H](CO)C(=O)N[C@@H](CC(C)C)C(=O)N[C@@H](CCSC)C(=O)N[C@@H](CCCCN)C(=O)N[C@@H](CCCCN)C(=O)N[C@@H](CC(C)C)C(=O)N[C@@]1(C)CCC/C=C\CCC[C@@](C)(C(=O)N[C@@H](CCCCN)C(N)=O)NC(=O)[C@H]([C@@H](C)CC)NC(=O)[C@H](Cc2cnc[nH]2)NC(=O)[C@H](C)NC1=O (H-GIMS(X2)SLMKKL[S5]AHI[S5]K-NH2; staple (Z) 11-15) | > 400 | –
CC[C@H](C)[C@H](NC(=O)[C@H](CCCCN)NC(=O)[C@H](CCCCN)NC(=O)[C@H](Cc1c[nH]c2ccccc12)NC(=O)[C@H](CC(N)=O)NC(=O)[C@@H](N)C(C)C)C(=O)N[C@@H](CC(C)C)C(=O)NCC(=O)N[C@@H](CCCCN)C(=O)N[C@@]1(C)CCC/C=C\CCC[C@@](C)(C(=O)N[C@@H](CCCCN)C(N)=O)NC(=O)[C@H](C(C)C)NC(=O)[C@H](CCCCN)NC(=O)[C@H]([C@@H](C)CC)NC1=O (H-VNWKKILGK[S5]IKV[S5]K-NH2; staple (Z) 10-14) | 69 | –
CCCC[C@@H]1NC(=O)[C@@](C)(NC(=O)[C@H](CCCCN)NC(=O)[C@@H]2CCCN2C(=O)[C@H](CC(C)C)NC(=O)[C@@H](NC(=O)[C@H](CCCCN)NC(=O)[C@H](CCCCN)NC(=O)[C@H](CC(C)C)NC(=O)[C@@H](NC(=O)[C@H](CO)NC(=O)[C@H](CC(C)C)NC(=O)[C@H](Cc2ccccc2)NC(=O)CN)[C@@H](C)CC)C(C)C)CCC/C=C\CCC[C@@](C)(C(=O)N[C@@H](CCCCN)C(N)=O)NC(=O)[C@H](Cc2cnc[nH]2)NC(=O)[C@H](C)NC1=O (H-GFLSILKKVLPK[S5][Nle]AH[S5]K-NH2; staple (Z) 13-17) | 18.1 | –
CC[C@H](C)[C@H](NC(=O)[C@H](CCCCN)NC(=O)CNC(=O)[C@H](CC(C)C)NC(=O)[C@]1(C)CCC/C=C\CCC[C@](C)(NC(=O)[C@@H](N)C(C)C)C(=O)N[C@@H](Cc2c[nH]c3ccccc23)C(=O)N[C@@H](CCCCN)C(=O)N[C@@H](CCCCN)C(=O)N1)C(=O)N[C@H](C(=O)N[C@@H](CCCCN)C(=O)N[C@H](C(=O)N[C@H](C(=O)N[C@@H](CCCCN)C(N)=O)C(C)C)C(C)C)[C@@H](C)CC (H-V[S5]WKK[S5]LGKIIKVVK-NH2; staple (Z) 2-6) | 30 | –
CC[C@H](C)[C@H](NC(=O)[C@]1(C)CCC/C=C\CCC[C@](C)(NC(=O)[C@H](CCCCN)NC(=O)[C@H](CCCCN)NC(=O)[C@H](Cc2c[nH]c3ccccc23)NC(=O)[C@H](CC(N)=O)NC(=O)[C@@H](N)C(C)C)C(=O)N[C@@H](CC(C)C)C(=O)NCC(=O)N[C@@H](CCCCN)C(=O)N1)C(=O)N[C@@H](CCCCN)C(=O)N[C@H](C(=O)N[C@H](C(=O)N[C@@H](CCCCN)C(N)=O)C(C)C)C(C)C (H-VNWKK[S5]LGK[S5]IKVVK-NH2; staple (Z) 6-10) | 31.3 | –
CC[C@H](C)[C@H](NC(=O)CN)C(=O)NCC(=O)N[C@@H](CCCCN)C(=O)N[C@@H](Cc1ccccc1)C(=O)N[C@@H](CC(C)C)C(=O)N[C@@H](Cc1cnc[nH]1)C(=O)N[C@@H](CO)C(=O)N[C@@H](C)C(=O)N[C@@H](CCCCN)C(=O)N[C@@H](CCCCN)C(=O)N[C@@H](Cc1ccccc1)C(=O)NCC(=O)N[C@@H](CCCCN)C(=O)N[C@@H](C)C(=O)N[C@@H](Cc1ccccc1)C(=O)N[C@@]1(C)CCC/C=C\CCC[C@@](C)(C(=O)N[C@@H](CC(N)=O)C(=O)N[C@@H](CO)C(N)=O)NC(=O)[C@H]([C@@H](C)CC)NC(=O)[C@H](CCC(=O)O)NC(=O)CNC1=O (H-GIGKFLHSAKKFGKAF[S5]GEI[S5]NS-NH2; staple (Z) 17-21) | – | hemolysis at 1 h [1]: < 10%
CC[C@H](C)[C@H](NC(=O)CN)C(=O)NCC(=O)N[C@@H](CCCCN)C(=O)N[C@@H](Cc1ccccc1)C(=O)N[C@@H](CC(C)C)C(=O)N[C@@H](Cc1cnc[nH]1)C(=O)N[C@@H](CO)C(=O)N[C@@H](C)C(=O)N[C@@H](CCCCN)C(=O)N[C@@H](CCCCN)C(=O)N[C@@H](Cc1ccccc1)C(=O)NCC(=O)N[C@@H](CCCCN)C(=O)N[C@@H](C)C(=O)N[C@@H](Cc1ccccc1)C(=O)N[C@H](C(=O)NCC(=O)N[C@@]1(C)CCC/C=C\CCC[C@@](C)(C(N)=O)NC(=O)[C@H](CC(N)=O)NC(=O)[C@H](CCSC)NC(=O)[C@H]([C@@H](C)CC)NC1=O)C(C)C (H-GIGKFLHSAKKFGKAFVG[S5]IMN[S5]-NH2; staple (Z) 19-23) | – | hemolysis at 1 h [1]: 100%
CCCC[C@H](NC(=O)[C@H](Cc1cnc[nH]1)NC(=O)[C@H](C)NC(=O)[C@H](CCCC)NC(=O)[C@@H](NC(=O)[C@H](CCCCN)NC(=O)[C@@H]1CCCN1C(=O)[C@]1(C)CCC/C=C\CCCCCC[C@@](C)(NC(=O)[C@H](Cc2ccccc2)NC(=O)CN)C(=O)N[C@@H](CO)C(=O)N[C@@H]([C@@H](C)CC)C(=O)N[C@@H](CC(C)C)C(=O)N[C@@H](CCCCN)C(=O)N[C@@H](CCCCN)C(=O)N[C@@H](C(C)C)C(=O)N1)C(C)C)C(=O)N[C@@H](CCCCN)C(N)=O (H-GF[R8]SILKKV[S5]PKV[Nle]AH[Nle]K-NH2; staple (Z) 3-10) | 11 | –
CC[C@H](C)[C@@H]1NC(=O)[C@H](CCCCN)NC(=O)[C@H](CCCCN)NC(=O)[C@](C)(NC(=O)[C@H](CC(N)=O)NC(=O)[C@@H](N)C(C)C)CCCCCC/C=C/CCC[C@@](C)(C(=O)N[C@H](C(=O)N[C@@H](CCCCN)C(=O)N[C@H](C(=O)N[C@H](C(=O)N[C@@H](CCCCN)C(N)=O)C(C)C)C(C)C)[C@@H](C)CC)NC(=O)[C@H](CCCCN)NC(=O)CNC(=O)[C@H](CC(C)C)NC1=O (H-VN[R8]KKILGK[S5]IKVVK-NH2; staple (E) 3-10) | > 100 | –
